The values that follow come from US11180474B2 (BRISTOL-MYERS SQUIBB COMPANY, priority 2016, dated 2021).

In one experiment the target is T1, human TLR7 (Homo sapiens, UniProt Q9NYK1).
T1 construct: host or cells: HEK-Blue cells
T1 sequence (Q9NYK1 27-1049): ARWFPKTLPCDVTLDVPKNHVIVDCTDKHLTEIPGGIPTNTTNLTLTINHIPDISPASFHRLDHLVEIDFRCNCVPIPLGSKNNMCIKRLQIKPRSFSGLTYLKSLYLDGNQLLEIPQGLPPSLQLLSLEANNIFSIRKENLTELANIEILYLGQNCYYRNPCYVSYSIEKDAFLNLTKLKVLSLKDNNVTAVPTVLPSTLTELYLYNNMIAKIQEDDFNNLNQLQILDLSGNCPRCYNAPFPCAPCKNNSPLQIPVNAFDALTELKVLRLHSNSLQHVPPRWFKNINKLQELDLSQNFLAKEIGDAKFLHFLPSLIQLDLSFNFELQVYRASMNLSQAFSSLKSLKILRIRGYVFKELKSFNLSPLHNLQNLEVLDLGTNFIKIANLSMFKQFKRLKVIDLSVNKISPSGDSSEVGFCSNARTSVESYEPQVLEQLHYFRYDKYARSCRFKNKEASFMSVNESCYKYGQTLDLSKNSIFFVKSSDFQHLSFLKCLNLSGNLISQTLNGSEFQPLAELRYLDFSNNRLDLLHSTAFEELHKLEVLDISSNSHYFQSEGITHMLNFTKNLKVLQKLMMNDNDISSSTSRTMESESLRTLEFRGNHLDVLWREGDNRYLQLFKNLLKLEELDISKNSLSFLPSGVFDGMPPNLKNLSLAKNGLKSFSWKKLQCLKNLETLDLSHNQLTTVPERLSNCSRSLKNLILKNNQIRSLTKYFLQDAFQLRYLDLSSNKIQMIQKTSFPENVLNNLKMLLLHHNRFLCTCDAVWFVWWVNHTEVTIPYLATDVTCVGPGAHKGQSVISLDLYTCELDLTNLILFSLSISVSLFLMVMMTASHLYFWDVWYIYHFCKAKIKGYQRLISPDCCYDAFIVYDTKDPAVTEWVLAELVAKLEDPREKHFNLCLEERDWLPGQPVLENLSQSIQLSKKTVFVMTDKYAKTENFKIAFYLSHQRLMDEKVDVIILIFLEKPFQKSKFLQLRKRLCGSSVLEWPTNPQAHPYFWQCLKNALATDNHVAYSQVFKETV
The experiment in a line: TLR7 inhibition reporter assay (HEK-Blue cells, SEAP reporter, gardiquimod stimulation). Format: cell-based. The conditions noted are these: HEK-Blue cells overexpressing human TLR7, gardiquimod 7.5 μM. A digest of the protocol:
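Dose-response testing from 0.05 nM to 50 μM final was done on reporter cells for 22 hours at 37° C. Secreted SEAP was then detected, and inhibition was calculated as percent reduction of the agonist-plus-DMSO signal compared with wells given a known inhibitor.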
Background: In a reporter assay the amount or activity of a reporter protein is the signal.

Another experiment addresses T2, human TLR9 (Homo sapiens, UniProt Q9NR96).
T2 construct: host or cells: HEK-Blue cells
T2 sequence (Q9NR96 26-1032): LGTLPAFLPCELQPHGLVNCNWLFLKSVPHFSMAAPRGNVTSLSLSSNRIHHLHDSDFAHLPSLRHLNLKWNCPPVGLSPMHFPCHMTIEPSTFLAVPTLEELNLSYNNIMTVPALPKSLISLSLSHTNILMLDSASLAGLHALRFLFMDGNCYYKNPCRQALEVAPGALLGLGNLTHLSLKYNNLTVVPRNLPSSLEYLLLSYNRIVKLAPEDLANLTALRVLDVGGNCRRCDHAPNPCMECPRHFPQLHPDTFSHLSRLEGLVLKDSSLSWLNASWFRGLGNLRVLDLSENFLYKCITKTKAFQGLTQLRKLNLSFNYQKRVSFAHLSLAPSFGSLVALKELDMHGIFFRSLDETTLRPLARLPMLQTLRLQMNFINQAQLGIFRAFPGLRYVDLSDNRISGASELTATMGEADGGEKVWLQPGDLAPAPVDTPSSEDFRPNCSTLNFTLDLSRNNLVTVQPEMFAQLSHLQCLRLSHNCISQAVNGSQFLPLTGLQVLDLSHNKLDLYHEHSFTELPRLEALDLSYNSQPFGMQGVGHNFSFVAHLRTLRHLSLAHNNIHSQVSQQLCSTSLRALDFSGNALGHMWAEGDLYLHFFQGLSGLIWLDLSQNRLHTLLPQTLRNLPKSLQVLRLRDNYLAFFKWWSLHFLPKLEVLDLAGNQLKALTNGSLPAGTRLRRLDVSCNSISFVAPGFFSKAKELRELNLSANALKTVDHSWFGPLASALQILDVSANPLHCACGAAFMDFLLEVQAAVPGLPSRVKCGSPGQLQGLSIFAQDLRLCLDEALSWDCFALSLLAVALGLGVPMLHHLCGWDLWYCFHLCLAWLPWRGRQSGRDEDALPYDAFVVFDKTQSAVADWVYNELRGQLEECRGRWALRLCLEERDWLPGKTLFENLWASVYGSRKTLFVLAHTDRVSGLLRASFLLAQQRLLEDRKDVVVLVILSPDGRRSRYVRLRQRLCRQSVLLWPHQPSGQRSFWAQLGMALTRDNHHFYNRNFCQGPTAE
Kind of experiment: TLR9 inhibition reporter assay (HEK-Blue cells, SEAP reporter, ODN2006 stimulation). Format: cell-based. Particulars: HEK-Blue cells overexpressing human TLR9, ODN2006 5 nM. A digest of the protocol:
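Screening used HEK-Blue cells overexpressing one human TLR (7, 8 or 9) and an IFN-β minimal promoter–NF-κB/AP-1 SEAP construct. Stimulation lasted 22 h at 37 °C with receptor-specific agonist: gardiquimod, R848 or ODN2006 at 7.5 μM, 15.9 μM and 5 nM.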

Structures are written as SMILES.

A word on the IC50: it is the midpoint of a concentration-inhibition curve. Low values mean greater potency, high ones weaker potency. With `COc1ccc(-c2[nH]c3ccc(C4CCN(C(=O)CN5CCC[C@@H](C(=O)N6CC7CNCC7C6)C5)CC4)cc3c2C(C)C)cc1OC` (stereo partly drawn) [Example 310, 1-(4-(2-(3,4-dimethoxyphenyl)-3-isopropyl-1H-indol-5-yl)piperidin-1-yl)-2-((3R)-3-(octahydropyrrolo[3,4-c]pyrrole-2-carbonyl)piperidin-1-yl) ethan-1-one], the IC50 was 290 nM at human TLR7 and 5230 nM on human TLR9.
Taken in the same sequence, the figures for `COc1ccc(-c2[nH]c3ccc(C4CCN(C(=O)CN5CCC[C@H](C(=O)NC6(CO)CCCC6)C5)CC4)cc3c2C(C)C)cc1OC` [Example 296, (S)-1-(2-(4-(2-(3,4-dimethoxyphenyl)-3-isopropyl-1H-indol-5-yl)piperidin-1-yl)-2-oxoethyl)-N-(1-(hydroxymethyl)cyclopentyl)piperidine-3-carboxamide] were 35 nM and 3030 nM.
The corresponding values for `COc1ccc(-c2[nH]c3ccc(C4CCN(C(=O)CN5CCN(CC(=O)NC(C)C)CC5)CC4)cc3c2C(C)C)cc1OC` [Example 229, 2-(4-(2-(4-(2-(3,4-dimethoxyphenyl)-3-isopropyl-1H-indol-5-yl)piperidin-1-yl)-2-oxoethyl)piperazin-1-yl)-N-isopropylacetamide] are 25 nM and 4980 nM.
The corresponding values for `COc1ccc(-c2[nH]c3ccc(C4CCN(Cc5cncn5C)CC4)cc3c2C(C)C)cc1OC` [Example 258, 2-(3,4-dimethoxyphenyl)-3-isopropyl-5-(1-((1-methyl-1H-imidazol-5-yl)methyl)piperidin-4-yl)-1H-indole] are 18 nM and 1440 nM.
For `COc1ccc(-c2[nH]c3ccc(C4CCN(Cc5nccn5C)CC4)cc3c2C(C)C)cc1OC` [Example 262, 2-(3,4-dimethoxyphenyl)-3-isopropyl-5-(1-((1-methyl-1H-imidazol-2-yl)methyl)piperidin-4-yl)-1H-indole], the IC50 against human TLR7 was found to be 61 nM; at human TLR9, 2970 nM.
`COc1ccc(-c2[nH]c3ccc(C4CCN(C(=O)CN5CCC[C@H](C(=O)N6CCN(CCN7CCCC7)CC6)C5)CC4)cc3c2C(C)C)cc1OC` [Example 293, (S)-1-(4-(2-(3,4-dimethoxyphenyl)-3-isopropyl-1H-indol-5-yl)piperidin-1-yl)-2-(3-(4-(2-(pyrrolidin-1-yl)ethyl)piperazine-1-carbonyl)piperidin-1-yl)ethan-1-one]: the half-inhibitory concentration (IC50) against human TLR7 was determined as 28 nM; on human TLR9, 777 nM.
Regarding `COc1ccc(-c2[nH]c3ccc(C4CCN(C(=O)CN5CCC[C@H](C(=O)NCC(N)=O)C5)CC4)cc3c2C(C)C)cc1OC` [Example 298, (S)—N-(2-amino-2-oxoethyl)-1-(2-(4-(2-(3,4-dimethoxyphenyl)-3-isopropyl-1H-indol-5-yl)piperidin-1-yl)-2-oxoethyl)piperidine-3-carboxamide], the IC50 against human TLR7 came to 47 nM; at human TLR9, 3940 nM.
On to `COc1ccc(-c2[nH]c3ccc(C4CCN(C(=O)CN5CCCN(C)CC5)CC4)cc3c2C(C)C)cc1OC` [Example 239, 1-(4-(2-(3,4-dimethoxyphenyl)-3-isopropyl-1H-indol-5-yl)piperidin-1-yl)-2-(4-methyl-1,4-diazepan-1-yl)ethan-1-one], for which the IC50 on human TLR7 was 11 nM; on human TLR9 it was 516 nM.
For `COc1ccc(-c2[nH]c3ccc(C4CCN(C(=O)CN5CCC[C@@H](C(=O)N6CCCC6)C5)CC4)cc3c2C(C)C)cc1OC` [Example 303, (R)-1-(4-(2-(3,4-dimethoxyphenyl)-3-isopropyl-1H-indol-5-yl)piperidin-1-yl)-2-(3-(pyrrolidine-1-carbonyl)piperidin-1-yl)ethan-1-one], the IC50 against human TLR7 stood at 30 nM; against human TLR9 it was 1790 nM.
Taken in the same sequence, the figures for `COc1ccc(-c2[nH]c3ccc(C4CCN(C(=O)CN5CCC(N(C)C)CC5)CC4)cc3c2C(C)C)cc1OC` [Example 244, 1-(4-(2-(3,4-dimethoxyphenyl)-3-isopropyl-1H-indol-5-yl)piperidin-1-yl)-2-(4-(dimethylamino)piperidin-1-yl)ethan-1-one] were 6 nM and 381 nM.
Taken in the same sequence, the figures for `COc1ccc(-c2[nH]c3ccc(C4CCN(C(=O)CNC5CCCC5O)CC4)cc3c2C(C)C)cc1OC` (centres unmarked) [Example 236, 1-(4-(2-(3,4-dimethoxyphenyl)-3-isopropyl-1H-indol-5-yl)piperidin-1-yl)-2-((2-hydroxycyclopentyl)amino)ethan-1-one] were 29 nM and 1380 nM.
Taken in the same sequence, the figures for `COc1ccc(-c2[nH]c3ccc(C4CCN(CC(=O)NCCCO)CC4)cc3c2C(C)C)cc1OC` [Example 277, 2-(4-(2-(3,4-dimethoxyphenyl)-3-isopropyl-1H-indol-5-yl)piperidin-1-yl)-N-(3-hydroxypropyl)acetamide] were 16 nM and 4980 nM.
In the case of `COc1ccc(-c2[nH]c3ccc(C4CCN(C(=O)CN5CCC[C@@H](C(=O)N6CCC(N(C)C)CC6)C5)CC4)cc3c2C(C)C)cc1OC` [Example 305, (R)-1-(4-(2-(3,4-dimethoxyphenyl)-3-isopropyl-1H-indol-5-yl)piperidin-1-yl)-2-(3-(4-(dimethylamino)piperidine-1-carbonyl)piperidin-1-yl)ethan-1-one], the values for the IC50 at human TLR7 and against human TLR9 were 27 nM and 561 nM, respectively.
`COc1ccc(-c2[nH]c3ccc(C4CCNCC4O)cc3c2C(C)C)cc1OC` (single isomer, unassigned) [Example 317, 4-(2-(3,4-dimethoxyphenyl)-3-isopropyl-1H-indol-5-yl)piperidin-3-ol 2,2,2-trifluoroacetate]: the results for the IC50 against human TLR7 and against human TLR9 were 38 nM and 4720 nM, respectively.
Turning to `COc1ccc(-c2[nH]c3ccc(C4CCN(C(=O)CN5CCC[C@H](C(=O)N6CCN(C(C)=O)CC6)C5)CC4)cc3c2C(C)C)cc1OC` [Example 284, (S)-2-(3-(4-acetylpiperazine-1-carbonyl)piperidin-1-yl)-1-(4-(2-(3,4-dimethoxyphenyl)-3-isopropyl-1H-indol-5-yl)piperidin-1-yl)ethan-1-one], the 50% inhibitory concentration (IC50) amounted to 39 nM on human TLR7 and 4610 nM on human TLR9.
Taken in the same sequence, the figures for `COc1ccc(-c2[nH]c3ccc(C4CCN(C(=O)CN5CCC[C@H](C(=O)N6C(C)CCC6C)C5)CC4)cc3c2C(C)C)cc1OC` (stereo partly drawn) [Example 300, 1-(4-(2-(3,4-dimethoxyphenyl)-3-isopropyl-1H-indol-5-yl)piperidin-1-yl)-2-((3S)-3-(2,5-dimethylpyrrolidine-1-carbonyl)piperidin-1-yl)ethan-1-one] were 85 nM and 321 nM.
